Measured values from article PMC6670175 (Virology Journal, 2019).
“And” between values parts separate entries of the source, which are not always exact repeats. Identical values can stand only once. Like-named read-outs stand apart in the source and are kept apart here. Ends that are not written are not given here.

Experiments:
PRV Ea strain = type: cell-based, pseudorabies virus
PEDV YNKM strain = type: cell-based, porcine epidemic diarrhea virus; details: for residual infectivity: n = 3
TGEV WH-1 strain = type: cell-based, transmissible gastroenteritis virus; details: for residual infectivity: n = 3
RV TM-a strain = type: cell-based, rotavirus; details: n = 3
PRV-HNXX = type: cell-based, pseudorabies virus; details: n = 3
[1] = system: PRV-152 (modified Bartha strain); type: cell-based, pseudorabies virus; details: n = 3
PRV-Ea [2] = type: cell-based, pseudorabies virus
PRV-Ea [3] = system: PRV-Ea
PRV-Ea [4] = system: PRV-Ea; remark: listed apart in the source
PRRSV YA isolate = type: cell-based, porcine reproductive and respiratory syndrome virus

CC[C@H](C)[C@H](N)C(=O)N[C@@H](CC(C)C)C(=O)N1CCC[C@H]1C(=O)N[C@@H](Cc1c[nH]c2ccccc12)C(=O)N[C@@H](CCCCN)C(=O)N[C@@H](Cc1c[nH]c2ccccc12)C(=O)N1CCC[C@H]1C(=O)N[C@@H](Cc1c[nH]c2ccccc12)C(=O)N[C@@H](Cc1c[nH]c2ccccc12)C(=O)N1CCC[C@H]1C(=O)N[C@@H](Cc1c[nH]c2ccccc12)C(=O)N[C@@H](CCCNC(=N)N)C(=O)N[C@@H](CCCNC(=N)N)C(N)=O [indolicidin]
antiviral activity against PRV (in words) (PRV Ea strain): mild antiviral activity | residual infectivity (PRV Ea strain; n = 3): 34.6% | 50% toxic concentration (TC50) (PK-15 cells; 48 h): 110.2 µg/mL

FFHHIFRGIVHVGKTIHRLVTG [piscidin, piscidin 1]
decrease in the residual infectivity (PRV Ea strain): more than 30 folds | residual infectivity (PRV Ea strain; n = 3): around 2.3% | residual infectivity (PEDV YNKM strain): lower than 50% | residual infectivity (TGEV WH-1 strain): 41.5% | residual infectivity (RV TM-a strain): 7.4% | inhibitory activity against PRV HNXX (in words) (PRV-HNXX): displayed inhibitory activities | inhibitory activity against PRV 152 (in words) [1]: displayed inhibitory activities | inhibitory effect on PRV, post-infection (curative) (PRV-Ea [2]): No inhibitory effect | inhibitory effect on PRV, pre-infection (prophylactic) (PRV-Ea [2]): No inhibitory effect | 50% toxic concentration (TC50) (PK-15 cells): 65.2 µg/mL | inhibition of PRV particles (in words) (PRV-Ea [3]): inhibit most of the PRV particles | 50% effective concentration (EC50) (PRV-Ea [3]; n = 3): 0.23 µg/mL | brain pathology (H&E) (PRV-Ea [4]; mouse, in vivo): no specific symptom | clinical signs, peptide alone (PRV-Ea [4]; mouse, in vivo): remained asymptomatic | clinical symptoms versus PRV infected mice (PRV-Ea [4]; mouse, in vivo): symptoms appeared later and not so severe | outcome after re-challenge (PRV-Ea [4]; mouse, in vivo): all died | protection against PRV infection (in words) (PRV-Ea [4]; mouse, in vivo): obviously protected | survival and behaviour after peptide alone (PRV-Ea [4]; mouse, in vivo): All mice survived and behaved normally | survival rate of mice (PRV-Ea [4]; mouse, in vivo): 90% | survival rates at the end of the experiment (PRV-Ea [4]; mouse, in vivo): 30% | mice with severe neurological symptoms euthanized (PRV-Ea [4]; n = 10): 6 and 5 and 7

FKCRRWQWRMKKLGAPSITCVRRAF [lactoferricin B]
antiviral activity against PRV (in words) (PRV Ea strain): mild antiviral activity | residual infectivity (TGEV WH-1 strain): 54.1% | cytotoxic activity at maximum concentration (PK-15 cells): did not exhibit obvious cytotoxic activity

GLFGVLAKVAAHVVPAIAEHF-NH2 (C-terminus assumed) [maculatin, maculatin 1.1]
residual infectivity (PRV Ea strain): 0.0017% | residual infectivity (PRV Ea strain; n = 3): 10.1% and 10.11% | activity against PEDV (in words) (PEDV YNKM strain): limited activity | activity against PRRSV (in words) (PRRSV YA isolate): limited activity | activity against TGEV (in words) (TGEV WH-1 strain): limited activity | residual infectivity (RV TM-a strain): 43.4% | inhibitory activity against PRV HNXX (in words) (PRV-HNXX): displayed inhibitory activities | inhibitory activity against PRV 152 (in words) [1]: displayed inhibitory activities | inhibitory effect on PRV, post-infection (curative) (PRV-Ea [2]): No inhibitory effect | inhibitory effect on PRV, pre-infection (prophylactic) (PRV-Ea [2]): No inhibitory effect | 50% toxic concentration (TC50) (PK-15 cells; 48 h): 76.6 µg/mL | inhibition of PRV particles (in words) (PRV-Ea [3]): inhibit most of the PRV particles | 50% effective concentration (EC50) (PRV-Ea [3]; 1 h): 1.09 µg/mL

GLLSVLGSVAKHVLPHVVPVIAEHL-NH2 (C-terminus assumed) [caerin, caerin 1.1]
decrease in the residual infectivity (PRV Ea strain): more than 30 folds | residual infectivity (PRV Ea strain; n = 3): around 2.3% | residual infectivity (PEDV YNKM strain): 0.2% | residual infectivity (PRRSV YA isolate; n = 3): 41.1% | residual infectivity (RV TM-a strain): lower than 50% | inhibitory activity against PRV HNXX (in words) (PRV-HNXX): displayed inhibitory activities | inhibitory activity against PRV 152 (in words) [1]: displayed inhibitory activities | inhibitory effect on PRV, post-infection (curative) (PRV-Ea [2]): No inhibitory effect | inhibitory effect on PRV, pre-infection (prophylactic) (PRV-Ea [2]): No inhibitory effect | 50% toxic concentration (TC50) (PK-15 cells; 48 h): 67.8 µg/mL | inhibition of PRV particles (in words) (PRV-Ea [3]): inhibit most of the PRV particles | 50% effective concentration (EC50) (PRV-Ea [3]; 1 h): 2.63 µg/mL
